In US7297797B2, “Pyrrolines” (Bayer CropScience AG, priority 2002, dated 2007):
Where two headings read alike, the source gives them in different places.

Assays:
[1] = log P determination by HPLC on reversed-phase column (EEC Directive 79/831 Annex V.A8); format: physicochemical
Description: The log P values given in the preparation examples and tables above are determined in accordance with EEC Directive 79/831 Annex V.A8 by HPLC (High Performance Liquid Chromatography) on a reversed-phase column (C 18). Temperature: 43° C. In the acidic range, determination is carried out at pH 2.3 using the mobile phases 0.1% aqueous phosphoric acid and acetonitrile; linear gradient from 10% acetonitrile to 90% acetonitrile (in the tables marked with a)). In the neutral range, determination is carried out at pH 7.5 using the mobile phases 0.01 molar aqueous phosphate buffer solution and acetonitrile; linear gradient from 10% acetonitrile to 90% acetonitrile (in the tables marked with b)). Calibration is carried out using unbranched alkan-2-ones (of 3 to 16 carbon atoms) with known lopP values (determination of the log P values by the retention times using linear interpolation between two successive alkanones).

[2] = tested on: caterpillars of the cotton bollworm (Heliothis armigera); assay: Heliothis armigera test; format: in vivo; settings: Helicoverpa armigera, 168 h; 100 ppm active compound; soybean shoots (Glycine max) dipped; after 7 d; read-out: Kill rate in % after 7 d
Description: (§1) Heliothis armigera Test • Solvent: 7 parts by weight of dimethylformamide • Emulsifier: 2 parts by weight of alkylaryl polyglycol ether To produce a suitable preparation of active compound, 1 part by weight of active compound is mixed with the stated amounts of solvent and emulsifier, and the concentrate is diluted with emulsifier-containing water to the desired concentration. Soybean shoots (Glycine max) are treated by being dipped into the preparation of active compound of the desired concentration and are populated with caterpillars of the cotton bollworm (Heliothis armigera) while the leaves are still moist. After the desired period of time, the kill in % is determined. 100% means that all caterpillars have been killed; 0% means that none of the caterpillars have been killed. In this test, for example, the following compounds of the preparation examples show good activity: […]

[3] = tested on: larvae of the mustard beetle (Phaedon cochleariae); assay: Phaedon larvae test; format: in vivo; settings: 168 h, 100 ppm active compound, cabbage leaves (Brassica oleracea) dipped, after 7 d, read-out: Kill rate in % after 7 d
Description: as §1, with “Phaedon Larvae Test” for “Heliothis armigera Test”, “concentration. Cabbage leaves (Brassica oleracea)” for “concentration. Soybean shoots (Glycine max)”, “with larvae” for “with caterpillars”, “the mustard beetle (Phaedon cochleariae)” for “the cotton bollworm (Heliothis armigera)”, “all beetle larvae” for “all caterpillars”, “the beetle larvae” for “the caterpillars”

[4] = tested on: caterpillars of the diamondback moth (Plutella xylostella); assay: Plutella test; format: in vivo; settings: 100 ppm active compound, cabbage leaves (Brassica oleracea) dipped
Description: as §1, with “Plutella” for “Heliothis armigera”, “Cabbage leaves (Brassica oleracea)” for “Soybean shoots (Glycine max)”, “diamondback moth (Plutella xylostella)” for “cotton bollworm (Heliothis armigera)”

[5] = tested on: caterpillars of the army worm (Spodoptera exigua); assay: Spodoptera exigua test; format: in vivo; settings: 100 ppm active compound, cabbage leaves (Brassica oleracea) dipped
Description: as §1, with “Spodoptera exigua” for “Heliothis armigera”, “Cabbage leaves (Brassica oleracea)” for “Soybean shoots (Glycine max)”, “army worm (Spodoptera exigua)” for “cotton bollworm (Heliothis armigera)”

[6] = tested on: caterpillars of the army worm (Spodoptera frugiperda); assay: Spodoptera frugiperda test; format: in vivo; settings: 168 h, 100 ppm active compound, cabbage leaves (Brassica oleracea) dipped, after 7 d, read-out: Kill rate in % after 7 d
Description: as §1, with “Spodoptera frugiperda” for “Heliothis armigera”, “Cabbage leaves (Brassica oleracea)” for “Soybean shoots (Glycine max)”, “army worm (Spodoptera frugiperda)” for “cotton bollworm (Heliothis armigera)”

[7] = tested on: greenhouse red spider mite (Tetranychus urticae); assay: Tetranychus test (OP-resistant/dip treatment); format: in vivo; settings: 168 h, 100 ppm active compound, infested bean plants (Phaseolus vulgaris) dipped, OP-resistant, after 7 d, read-out: Kill rate in % after 7 d
Description: Tetranychus Test (OP-Resistant/Dip Treatment)
• Solvent: 7 parts by weight of dimethylformamide • Emulsifier: 2 parts by weight of alkylaryl polyglycol ether
To produce a suitable preparation of active compound, 1 part by weight of active compound is mixed with the stated amounts of solvent and emulsifier, and the concentrate is diluted with emulsifier-containing water to the desired concentration.
Bean plants (Phaseolus vulgaris) which are heavily infested by all stages of the greenhouse red spider mite (Tetranychus urticae) are treated by being dipped into a preparation of active compound of the desired concentration.
After the desired period of time, the activity in % is determined. 100% means that all spider mites have been killed; 0% means that none of the spider mites have been killed.
In this test, for example, the following compounds of the preparation examples show good efficacy: […]

[8] = reversed-phase C18 HPLC column; acidic range, pH 2.3, 0.1% aqueous phosphoric acid/acetonitrile, 43° C.; marked a) in tables, read-out: log P (pH 2.3)
[9] = reversed-phase C18 HPLC column; neutral range, pH 7.5, 0.01 molar aqueous phosphate buffer/acetonitrile, 43° C.; marked b) in tables, read-out: log P (pH 7.5)

| chromatographic logP [1, 8] | chromatographic logP [1, 9] | SMILES | pest or weed control at 100 ppm [2] | pest or weed control at 100 ppm [3] | Kill rate in % after 7 d [4] | Kill rate in after 7 d [5] | pest or weed control at 100 ppm [6] | pest or weed control at 100 ppm [7] |
| --- | --- | --- | --- | --- | --- | --- | --- | --- |
| 5.65 | 5.97 | CC(C)(C)c1nc(-c2ccc(-c3ccc(C4CCC(c5c(F)cccc5F)=N4)c(F)c3)cc2)no1 (stereo not shown) [Example 6, 5-tert-butyl-3-{4′-[5-(2,6-difluorophenyl)-3,4-dihydro-2H-pyrrol-2-yl]-3′-fluoro-1,1′-biphenyl-4-yl}-1,2,4-oxadiazole] | 100% | 100% | 100% | 100% | 100% | 98% |
| 5.43 | 5.72 | Fc1cc(-c2ccc(-c3noc(C(F)(F)F)n3)cc2)ccc1C1CCC(c2c(F)cccc2F)=N1 (stereo not shown) [Example 7] | 100% | 100% | 100% | 100% | 100% | 98% |
